Patent US6387934B1, “2-Cyano-3,5-dihydroxyhex-2-enecarboxamide derivatives” (Aventis Pharma Deutschland GmbH, priority 1996, dated 2002)
Counter-ions that a name gives are not always drawn.

Legend:
[1] = system: IL-1-induced chondrocytic chondrolysis; assay: Modulation of the IL-1-induced chondrocytic chondrolysis (chondrolysis compensation); type: cell-based, bulls; conditions: stimulation factor = proteoglycan content with active compound / IL-1-treated control; interleukin-1 for 8 days, 35S-sulfate incorporation 24 hours; factor >1 = stimulation
Procedure: (§1) Cartilage cells can maintain their characteristic cartilage matrix metabolism ex vivo in suitable cell or tissue culture, i.e. the controlled synthesis and degradation of the matrix macromolecules, over a period of several weeks to months. These processes can be chemically influenced. […] In both assays, the stimulating action of the test substance is expressed by a stimulation factor which is calculated from the quotient of the specific proteoglycan content under the active compound condition divided by the proteoglycan content under the control condition. In Experiment A, the control condition is the untreated control group and in experimental procedure B this is the interleukin-1 (IL-1)-treated control group. A factor=1 can thus identify no action, a factor of >1 points to a stimulation and a factor of <1 to an inhibitory action.
B) Modulation of the IL-1-induced Chondrocytic Chondrolysis (Chondrolysis Compensation)
Cell preparation was carried out as described under A), if cartilage tissue explants are used these are added directly to the enriched culture medium described above after stamping out cartilage disks of 4 mm diameter and a depth which includes the entire cartilage layer. After adaptation for 5 days, interleukin-1 is added to the medium, 8 units/well for the cell culture, 20 units/well for the tissue culture, and, over the treatment period of 8 days, likewise added again every second day on changing the medium. At the end of the experiments, 1 μCi of Na2^35SO4/well is added and the mixture is incubated for 24 hours. After removing the supernatant, the remaining gels or explants are broken down in the microtiter plates by repeated deepfreezing and thawing and extracted with 8 M guanidine hydrochloride. After centrifugation, the supernatant is separated on a PD10 Sephadex column into free and incorporated sulfate and the radioactivity of the samples, which is a measure of the amount of proteoglycan newly formed, is determined in a β counter.

[2] = system: chondrocytic proteoglycan metabolism; assay: Modulation of the chondrocytic proteoglycan metabolism (PG stimulation); type: cell-based, bulls; conditions: stimulation factor = proteoglycan content with active compound / untreated control, 10 μm test substance, 8 days, chondrocytes in agarose, Alcian Blue extinction at 610 nm, factor >1 = stimulation; for fold induction at 10 µM: Chondrocyte, 192 h
Procedure: as §1
A) Modulation of the chondrocytic proteoglycan metabolism (PG stimulation)
Cartilage samples are taken under sterile conditions from fetlock joints of freshly slaughtered bulls, incubated with 1% strength pronase (Boehringer) solution in Ham's F12 medium (Serva) at 37° C. for 1 hour, and the enzyme solution is replaced by a 0.025% strength collagenase type A (Worthington) solution in medium and incubated overnight. After filtering through a 50 μm nylon filter, centrifugation, resuspension and vitality testing, a cell suspension of 4×10^6 cells/ml of medium, enriched with 20% fetal calf serum, is prepared and mixed at approximately 38° C. with 2% strength low-melting agarose (Seplaque) in the ratio 1:1 and 0.1 ml of this is pipetted into each well of a 24 well microtiter plate. After gelling, the samples are covered with a layer of 0.5 ml/well of medium, which is enriched with 5% serum, 25 μm/ml of ascorbic acid, and in groups of up to 6-8 wells with 10 μm of the test substance. The medium in a constant composition is renewed every second day for a treatment period of 8 days. At the end of the treatment, washing is carried out with medium, 1 ml of a buffered (pH 5.6) 1% strength Alcian Blue (Sigma) solution, enriched with 25% strength glutaraldehyde in the ratio 7:1, per well is added and the mixture is incubated for 48 hours. After washing and differentiating with 3% strength acetic acid, dehydration is carried out up to 70% strength ethanol content by means of the rising alcohol series, and then the bound dye is extracted at 4° C. for 24 hours using 8 M guanidine hydrochloride. The stoichiometric binding of the Alcian Blue to the chondroitin sulfate side chains of the proteoglycans allows a quantification of the enriched matrix via the determination of the extinction of the dye solution at 610 nm.

`N#C/C(C(=O)Nc1ccc(C(F)(F)F)cc1)=C(/O)CC(O)c1ccncc1` (centres unmarked) [Example 20] showed a melting point of 203 °C.

Compound `CC(C)=CC(O)C/C(O)=C(\C#N)C(=O)Nc1ccc(C(F)(F)F)cc1` (centres unmarked) [Example 29] has a Chondrolysis compensation [1] of 1.7 and a fold induction at 10 µM [2] of 1.1.

With `N#C/C(C(=O)Nc1ccc(C(F)(F)F)cc1)=C(/O)CC(O)C1CC1` (centres unmarked) [Example 33] the Chondrolysis compensation [1] was 1.9.

In the case of `CC(O)C/C(O)=C(\C#N)C(=O)Nc1ccc(C(F)(F)F)cc1` (centres unmarked) [Example 9], the Chondrolysis compensation [1] was 1.6 and the fold induction at 10 µM [2] was 1.5.

With `CC(O)C/C(O)=C(\C#N)C(=O)NCCc1ccccc1` (centres unmarked) [Example 7] the Chondrolysis compensation [1] was 1.3 and the melting point was 91 °C.

Work on `N#C/C(C(=O)Nc1ccc(Cl)cc1)=C(/O)CC(O)c1ccccc1` (centres unmarked) [Example 12] yielded a melting point of 178 °C.

`CC(O)C/C(O)=C(\C#N)C(=O)Nc1ccc(C(F)(F)F)cc1` (centres unmarked) [Example 37, N-(4-Trifluoromethylphenyl)-2-cyano-3,5-dihydroxyhex-2-carboxamide Lysinium Salt] showed a Chondrolysis compensation [1] of 1.9 and a PG stimulation [2] of 1.1.

In the case of `N#C/C(C(=O)Nc1ccc(C(F)(F)F)cc1)=C(/O)CC(=O)O` [Example 36], the Chondrolysis compensation [1] was 1.8.

Compound `N#C/C(C(=O)Nc1ccc(C(F)(F)F)cc1)=C(/O)CC(O)c1ccc(C(F)(F)F)cc1` (centres unmarked) [Example 17] has a melting point of 178 °C.

`CC(C)(O)C/C(O)=C(\C#N)C(=O)Nc1ccccc1` [Example 1, N-(Phenyl)-2-cyano-3,5-dihydroxy-5-methylhex-2-enecarboxamide] showed a Chondrolysis compensation [1] of 1.4 and a melting point of 103 °C.

`CC(C)(O)C/C(O)=C(\C#N)C(=O)NCCc1ccccc1` [Example 4] showed a Chondrolysis compensation [1] of 1.5 and a melting point of 81 °C.

For `N#C/C(C(=O)Nc1ccc(C(F)(F)F)cc1)=C(/O)CC(O)c1ccoc1` (centres unmarked) [Example 23], the Chondrolysis compensation [1] was 1.9 and the melting point was 146 °C.

For `N#C/C(C(=O)Nc1ccc(C(F)(F)F)cc1)=C(/O)CC(O)c1ccco1` (centres unmarked) [Example 22], the Chondrolysis compensation [1] was 1.9 and the fold induction at 10 µM [2] was 1.1.

Work on `CC(O)C/C(O)=C(\C#N)C(=O)NCc1ccccc1` (centres unmarked) [Example 6] yielded a Chondrolysis compensation [1] of 1.9.

For `Cc1ccc(C(O)C/C(O)=C(\C#N)C(=O)Nc2ccc(C(F)(F)F)cc2)cc1` (centres unmarked) [Example 11], the melting point was 170 to 171 °C.

`Cc1ccc(C(O)C/C(O)=C(\C#N)C(=O)Nc2ccc(C(F)(F)F)cc2)cc1` (centres unmarked) [Example 14] gave a melting point of 180 °C.

Work on `C[C@H](O)C/C(O)=C(\C#N)C(=O)Nc1ccc(C(F)(F)F)cc1` (as salt: salt) [Example 10b, N-(4-Trifluormethylphenyl)-2-cyano-3,5-dihydroxyhex-2-enecarboxamide Lysinium Salt, S-isomer] yielded a melting point of 157 °C.

Work on `N#C/C(C(=O)Nc1ccc(C(F)(F)F)cc1)=C(/O)CC(O)c1ccc(C#N)cc1` (centres unmarked) [Example 16] yielded a Chondrolysis compensation [1] of 1.1 and a melting point of 180 °C.

Compound `C[C@H](O)C/C(O)=C(\C#N)C(=O)Nc1ccc(C(F)(F)F)cc1` [Example 10b, N-(4-Trifluormethylphenyl)-2-cyano-3,5-dihydroxyhex-2-enecarboxamide Lysinium Salt, S-isomer] has a Chondrolysis compensation [1] of 1.7.

With `CC(O)(C/C(O)=C(\C#N)C(=O)Nc1ccc(C(F)(F)F)cc1)C1CC1` (centres unmarked) [Example 32] the Chondrolysis compensation [1] was 1.8 and the fold induction at 10 µM [2] was 1.1.

With `CC(C)=CCC/C(C)=C/C(O)C/C(O)=C(\C#N)C(=O)Nc1ccc(C(F)(F)F)cc1` (centres unmarked) [Example 30] the Chondrolysis compensation [1] was 1.3 and the melting point was 114 to 116 °C.

`CC(C)(O)C/C(O)=C(\C#N)C(=O)NCc1ccccc1` [Example 3] showed a Chondrolysis compensation [1] of 1.5.

Compound `CC(O)C/C(O)=C(\C#N)C(=O)Nc1ccccc1` (centres unmarked) [Example 5] has a Chondrolysis compensation [1] of 1.8 and a melting point of 101 °C.

In the case of `CC(O)C/C(O)=C(\C#N)C(=O)Nc1ccc(C(F)(F)F)cc1` (centres unmarked) (as salt: salt) [Example 37, N-(4-Trifluoromethylphenyl)-2-cyano-3,5-dihydroxyhex-2-carboxamide Lysinium Salt], the melting point was 135 to 138 °C.

With `N#C/C(C(=O)Nc1ccc(C(F)(F)F)cc1)=C(/O)CC(O)c1cccs1` (centres unmarked) [Example 24] the Chondrolysis compensation [1] was 1.9.

With `N#C/C(C(=O)Nc1ccc(C(F)(F)F)cc1)=C(/O)CC(O)/C=C/c1ccccc1` (centres unmarked) [Example 25] the melting point was 168 to 172 °C.

Compound `Cc1cc(NC(=O)/C(C#N)=C(\O)CC(O)c2ccccc2)ccc1Cl` (centres unmarked) [Example 13] has a Chondrolysis compensation [1] of 1.1 and a melting point of 165 °C.

In the case of `C=C(C)C(O)C/C(O)=C(\C#N)C(=O)Nc1ccc(C(F)(F)F)cc1` (centres unmarked) [Example 28], the fold induction at 10 µM [2] was 1.1.

`N#C/C(C(=O)Nc1ccc(C(F)(F)F)cc1)=C(/O)CC(O)c1ccc2c(c1)OCO2` (centres unmarked) [Example 19] showed a Chondrolysis compensation [1] of 1.3 and a fold induction at 10 µM [2] of 1.1.

In the case of `CC(C)(O)C/C(O)=C(\C#N)C(=O)Nc1ccc(C(F)(F)F)cc1` [Example 2], the Chondrolysis compensation [1] was 1.9, the melting point was 155 °C and the fold induction at 10 µM [2] was 1.8.

Compound `CC(C)(O)C/C(O)=C(\C#N)C(=O)Nc1ccc(C(F)(F)F)cc1` [Example 38] has a Chondrolysis compensation [1] of 1.8 and a melting point of 145 to 148 °C.

`N#C/C(C(=O)Nc1ccc(C(F)(F)F)cc1)=C(/O)CC(O)C#Cc1ccccc1` (centres unmarked) [Example 26] showed a Chondrolysis compensation [1] of 1.9 and a melting point of 168 °C.

`C[C@@H](O)C/C(O)=C(\C#N)C(=O)Nc1ccc(C(F)(F)F)cc1` [Example 10a, N-(4-Trifluoromethylphenyl)-2-cyano-3,5-dihydroxyhex-2-enecarboxamide Lysinium Salt, R Isomer] showed a Chondrolysis compensation [1] of 1.1.

`N#C/C(C(=O)Nc1ccc(C(F)(F)F)cc1)=C(/O)CC(O)c1ccc(OCc2ccccc2)cc1` (centres unmarked) [Example 15] gave a Chondrolysis compensation [1] of 1.2.

Compound `C[C@@H](O)C/C(O)=C(\C#N)C(=O)Nc1ccc(C(F)(F)F)cc1` (as salt: salt) [Example 10a, N-(4-Trifluoromethylphenyl)-2-cyano-3,5-dihydroxyhex-2-enecarboxamide Lysinium Salt, R Isomer] has a melting point of 156 °C.

With `N#C/C(C(=O)Nc1ccc(C(F)(F)F)cc1)=C(/O)CC(O)c1cccnc1` (centres unmarked) [Example 21] the Chondrolysis compensation [1] was 1.3, the melting point was 203 °C and the fold induction at 10 µM [2] was 1.2.

For `CC(O)C/C(O)=C(\C#N)C(=O)Nc1ccc(Cl)cc1` (centres unmarked) [Example 8], the Chondrolysis compensation [1] was 2.1 and the melting point was 152 °C.

Work on `C=CC(O)C/C(O)=C(\C#N)C(=O)Nc1ccc(C(F)(F)F)cc1` (centres unmarked) [Example 27] yielded a Chondrolysis compensation [1] of 1.6, a melting point of 141 °C and a fold induction at 10 µM [2] of 1.7.

In the case of `CCCCC(C)(O)C/C(O)=C(\C#N)C(=O)Nc1ccc(C(F)(F)F)cc1` (centres unmarked) [Example 31], the Chondrolysis compensation [1] was 1.6.

Compound `COc1cc(C(O)C/C(O)=C(\C#N)C(=O)Nc2ccc(C(F)(F)F)cc2)cc(OC)c1OC` (centres unmarked) [Example 18] has a Chondrolysis compensation [1] of 1.2, a melting point of 154 °C and a fold induction at 10 µM [2] of 1.1.

With `C=CC(O)C/C(O)=C(\C#N)C(=O)Nc1ccc(C(F)(F)F)cc1` (centres unmarked) [Example 39] the Chondrolysis compensation [1] was 1.6, the melting point was 133 to 135 °C and the PG stimulation [2] was 1.7.
